According to US20250230193A1, “CYCLIC COMPOUND HAVING SELECTIVE KRAS INHIBITORY EFFECT ON HRAS AND NRAS” (CHUGAI SEIYAKU KABUSHIKI KAISHA, priority 2022, published 2025):
*1 amine or outer side, *2 acyl side, *3 side chain or, on linkers, in order; H or OH if unused. Where a SMILES comes first, the peptide text is derived from it. Bridges are numbered along the chain shown (N, C = ends). [ ]: non-standard residue; d: D form. The star is where a group is joined. ξ: configuration not given here. hPhe(3-Cl-4-CF3) = N[C@@H](CCc1ccc(C(F)(F)F)c(Cl)c1)C(=O)O; NPrPhe(4-CF3) = CCCN[C@@H](Cc1ccc(C(F)(F)F)cc1)C(=O)O; X48 = C=CCCN([C@@H](Cc1ccc(C)cc1)C(=O)[*:2])[*:1]; NMeGly(cPent) = CN[C@H](C(=O)O)C1CCCC1; Aze(3S-Me) = C[C@H]1CN[C@@H]1C(=O)O; NMeAllylGly = C=CC[C@H](NC)C(=O)O; NEtLeu = CCN[C@@H](CC(C)C)C(=O)O; NMeD = CN[C@@H](CC(=O)O)C(=O)O; NMeL = CN[C@@H](CC(C)C)C(=O)O; NEtAla = CCN[C@@H](C)C(=O)O; ξNMeD = CNC(CC(=O)O)C(=O)O; Morpholide = C1CN(*)CCO1; NMeA = CN[C@@H](C)C(=O)O; dNMeA = CN[C@H](C)C(=O)O; Ac5c = NC1(C(=O)O)CCCC1; Aze = O=C(O)[C@@H]1CCN1; ξP = O=C(O)C1CCCN1; NEtG = CCNCC(=O)O; Sar = CNCC(=O)O

Key:
[1] = target: GDP-bound NRAS wild-type protein (Homo sapiens, UniProt P01111); assay: Binding to NRAS by surface plasmon resonance (SPR), Single Cycle Kinetics; conditions: KD ratio NRAS/KRAS, SPR
[2] = target: GDP-bound HRAS wild-type protein (Homo sapiens, UniProt P01112); assay: Binding to HRAS by surface plasmon resonance (SPR), Single Cycle Kinetics; conditions: KD ratio HRAS/KRAS, SPR
Chain of GDP-bound HRAS wild-type protein (P01112 whole entry): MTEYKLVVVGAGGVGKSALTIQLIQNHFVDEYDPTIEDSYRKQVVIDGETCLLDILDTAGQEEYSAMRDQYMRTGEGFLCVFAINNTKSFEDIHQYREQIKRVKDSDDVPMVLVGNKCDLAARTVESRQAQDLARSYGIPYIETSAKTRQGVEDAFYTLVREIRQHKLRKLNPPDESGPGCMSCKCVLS

Chain of GDP-bound NRAS wild-type protein (P01111 whole entry): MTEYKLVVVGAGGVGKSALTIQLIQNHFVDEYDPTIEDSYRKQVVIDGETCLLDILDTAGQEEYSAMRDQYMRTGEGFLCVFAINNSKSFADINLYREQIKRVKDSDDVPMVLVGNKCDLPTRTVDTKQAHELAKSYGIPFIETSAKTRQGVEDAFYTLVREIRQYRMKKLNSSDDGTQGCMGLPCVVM

SMILES	NRAS/KRAS (ratio of KD for GDP-bound NRAS wild-type to KD for KRAS) [1]	HRAS/KRAS (ratio of KD for GDP-bound HRAS wild-type to KD for KRAS) [2]
C=CCCN1C(=O)[C@H](CC=C)N(C)C(=O)CN(C)C(=O)[C@H]([C@@H](C)CC)NC(=O)[C@H](CC(C)C)N(C)C(=O)C[C@@H](C(=O)N2CCOCC2)N(C)C(=O)[C@H](C2CCCC2)N(C)C(=O)C2(CCCC2)NC(=O)[C@@H]2CCCN2C(=O)[C@H](CCc2ccc(C(F)(F)F)c(Cl)c2)NC(=O)CN(C)C(=O)[C@@H]1Cc1ccc(C)cc1 [PP0140] ([NMeL]I[Sar][NMeAllylGly][X48][Sar][hPhe(3-Cl-4-CF3)]P[Ac5c][NMeGly(cPent)][NMeD]-Morpholide; lactam N-11)	C (A compound having a KD ratio of 0.1 or more and less than 3 is denoted as C)	B (a compound having 3 or more and less than 10 is denoted as B)
CCCN1C(=O)[C@@H]2[C@@H](C)CN2C(=O)[C@H](C)N(C)C(=O)[C@H]([C@@H](C)CC)NC(=O)[C@H](CC(C)C)N(C)C(=O)C[C@@H](C(=O)N2CCOCC2)N(C)C(=O)[C@H](C2CCCC2)N(C)C(=O)C2(CCCC2)NC(=O)[C@@H]2CCCN2C(=O)[C@H](CCc2ccc(C(F)(F)F)c(Cl)c2)NC(=O)CN(C)C(=O)[C@@H]1Cc1ccc(C(F)(F)F)cc1 [PP0141] ([NMeL]I[NMeA][Aze(3S-Me)][NPrPhe(4-CF3)][Sar][hPhe(3-Cl-4-CF3)]P[Ac5c][NMeGly(cPent)][NMeD]-Morpholide; lactam N-11)	C (A compound having a KD ratio of 0.1 or more and less than 3 is denoted as C)	B (a compound having 3 or more and less than 10 is denoted as B)
CCCN1C(=O)CN(C)C(=O)CN(C)C(=O)[C@H]([C@@H](C)CC)NC(=O)[C@H](CC(C)C)N(C)C(=O)C[C@@H](C(=O)N2CCOCC2)N(C)C(=O)[C@H](C2CCCC2)N(C)C(=O)C2(CCCC2)NC(=O)CN(CC)C(=O)[C@H](CCc2ccc(C(F)(F)F)c(Cl)c2)NC(=O)CN(C)C(=O)[C@@H]1Cc1ccc(C(F)(F)F)cc1 [PP0144] ([NMeL]I[Sar][Sar][NPrPhe(4-CF3)][Sar][hPhe(3-Cl-4-CF3)][NEtG][Ac5c][NMeGly(cPent)][NMeD]-Morpholide; lactam N-11)	B (a compound having 3 or more and less than 10 is denoted as B)	C (A compound having a KD ratio of 0.1 or more and less than 3 is denoted as C)
CCCN1C(=O)CN(C)C(=O)CN(CC)C(=O)[C@H]([C@@H](C)CC)NC(=O)[C@H](CC(C)C)N(C)C(=O)C[C@@H](C(=O)N2CCOCC2)N(C)C(=O)[C@H](C2CCCC2)N(C)C(=O)C2(CCCC2)NC(=O)[C@@H]2CCCN2C(=O)[C@H](CCc2ccc(C(F)(F)F)c(Cl)c2)NC(=O)CN(C)C(=O)[C@@H]1Cc1ccc(C(F)(F)F)cc1 [PP0145] ([NMeL]I[NEtG][Sar][NPrPhe(4-CF3)][Sar][hPhe(3-Cl-4-CF3)]P[Ac5c][NMeGly(cPent)][NMeD]-Morpholide; lactam N-11)	B (a compound having 3 or more and less than 10 is denoted as B)	B (a compound having 3 or more and less than 10 is denoted as B)
CCCN1C(=O)CN(C)C(=O)CN(C)C(=O)[C@H]([C@@H](C)CC)NC(=O)[C@H](CC(C)C)N(C)C(=O)C[C@@H](C(=O)N2CCOCC2)NC(=O)[C@H](C2CCCC2)N(C)C(=O)C2(CCCC2)NC(=O)[C@@H]2CCCN2C(=O)[C@H](CCc2ccc(C(F)(F)F)c(Cl)c2)NC(=O)CN(C)C(=O)[C@@H]1Cc1ccc(C(F)(F)F)cc1 [PP0146] ([NMeL]I[Sar][Sar][NPrPhe(4-CF3)][Sar][hPhe(3-Cl-4-CF3)]P[Ac5c][NMeGly(cPent)]D-Morpholide; lactam N-11)	B (a compound having 3 or more and less than 10 is denoted as B)	B (a compound having 3 or more and less than 10 is denoted as B)
CCCN1C(=O)CN(C)C(=O)CN(C)C(=O)[C@H]([C@@H](C)CC)NC(=O)[C@H](CC(C)C)N(C)C(=O)C[C@@H](C(=O)N2CCOCC2)N(C)C(=O)[C@H](C2CCCC2)N(C)C(=O)C2(CCCC2)NC(=O)[C@@H]2CCCN2C(=O)[C@H](CCc2ccc(C(F)(F)F)c(Cl)c2)NC(=O)[C@@H](C)N(C)C(=O)[C@@H]1Cc1ccc(C(F)(F)F)cc1 [PP0148] ([NMeL]I[Sar][Sar][NPrPhe(4-CF3)][dNMeA][hPhe(3-Cl-4-CF3)]P[Ac5c][NMeGly(cPent)][NMeD]-Morpholide; lactam N-11)	B (a compound having 3 or more and less than 10 is denoted as B)	B (a compound having 3 or more and less than 10 is denoted as B)
CCCN1C(=O)CN(C)C(=O)CN(C)C(=O)[C@H]([C@@H](C)CC)NC(=O)[C@H](CC(C)C)N(C)C(=O)CC(C(=O)N2CCOCC2)N(C)C(=O)[C@H](C2CCCC2)N(C)C(=O)C2(CCCC2)NC(=O)[C@@H]2CCCN2C(=O)[C@H](CCc2ccc(C(F)(F)F)c(Cl)c2)NC(=O)C2CCCN2C(=O)[C@@H]1Cc1ccc(C(F)(F)F)cc1 (some centres unmarked) [PP0149] ([NMeL]I[Sar][Sar][NPrPhe(4-CF3)][ξP][hPhe(3-Cl-4-CF3)]P[Ac5c][NMeGly(cPent)][ξNMeD]-Morpholide; lactam N-11)	C (A compound having a KD ratio of 0.1 or more and less than 3 is denoted as C)	B (a compound having 3 or more and less than 10 is denoted as B)
CCCN1C(=O)CN(C)C(=O)CN(C)C(=O)[C@H]([C@@H](C)CC)NC(=O)[C@H](CC(C)C)N(C)C(=O)C[C@@H](C(=O)N2CCOCC2)N(C)C(=O)[C@H](C2CCCC2)N(C)C(=O)[C@@H](C)NC(=O)[C@@H]2CCCN2C(=O)[C@H](CCc2ccc(C(F)(F)F)c(Cl)c2)NC(=O)CN(C)C(=O)[C@@H]1Cc1ccc(C(F)(F)F)cc1 [PP0150] ([NMeL]I[Sar][Sar][NPrPhe(4-CF3)][Sar][hPhe(3-Cl-4-CF3)]P[dA][NMeGly(cPent)][NMeD]-Morpholide; lactam N-11)	B (a compound having 3 or more and less than 10 is denoted as B)	C (A compound having a KD ratio of 0.1 or more and less than 3 is denoted as C)
CCCN1C(=O)[C@@H]2CCN2C(=O)[C@H](C)N(C)C(=O)[C@H]([C@@H](C)CC)NC(=O)[C@H](CC(C)C)N(CC)C(=O)C[C@@H](C(=O)N2CCOCC2)N(C)C(=O)[C@H](C2CCCC2)N(C)C(=O)C2(CCCC2)NC(=O)[C@@H]2CCCN2C(=O)[C@H](CCc2ccc(C(F)(F)F)c(Cl)c2)NC(=O)CN(C)C(=O)[C@@H]1Cc1ccc(C(F)(F)F)cc1 [PP0151] ([NEtLeu]I[NMeA][Aze][NPrPhe(4-CF3)][Sar][hPhe(3-Cl-4-CF3)]P[Ac5c][NMeGly(cPent)][NMeD]-Morpholide; lactam N-11)	C (A compound having a KD ratio of 0.1 or more and less than 3 is denoted as C)	C (A compound having a KD ratio of 0.1 or more and less than 3 is denoted as C)
CCCN1C(=O)[C@@H]2CCN2C(=O)[C@H](C)N(CC)C(=O)[C@H]([C@@H](C)CC)NC(=O)[C@H](CC(C)C)N(C)C(=O)C[C@@H](C(=O)N2CCOCC2)N(C)C(=O)[C@H](C2CCCC2)N(C)C(=O)C2(CCCC2)NC(=O)[C@@H]2CCCN2C(=O)[C@H](CCc2ccc(C(F)(F)F)c(Cl)c2)NC(=O)CN(C)C(=O)[C@@H]1Cc1ccc(C(F)(F)F)cc1 [PP0152] ([NMeL]I[NEtAla][Aze][NPrPhe(4-CF3)][Sar][hPhe(3-Cl-4-CF3)]P[Ac5c][NMeGly(cPent)][NMeD]-Morpholide; lactam N-11)	C (A compound having a KD ratio of 0.1 or more and less than 3 is denoted as C)	B (a compound having 3 or more and less than 10 is denoted as B)
CCCN1C(=O)[C@@H]2CCN2C(=O)[C@H](C)N(C)C(=O)[C@H]([C@@H](C)CC)NC(=O)[C@H](CC(C)C)N(C)C(=O)C[C@@H](C(=O)N2CCOCC2)N(C)C(=O)[C@H](C2CCCC2)N(C)C(=O)C2(CCCC2)NC(=O)[C@H](C)NC(=O)[C@H](CCc2ccc(C(F)(F)F)c(Cl)c2)NC(=O)CN(C)C(=O)[C@@H]1Cc1ccc(C(F)(F)F)cc1 [PP0153] ([NMeL]I[NMeA][Aze][NPrPhe(4-CF3)][Sar][hPhe(3-Cl-4-CF3)]A[Ac5c][NMeGly(cPent)][NMeD]-Morpholide; lactam N-11)	C (A compound having a KD ratio of 0.1 or more and less than 3 is denoted as C)	C (A compound having a KD ratio of 0.1 or more and less than 3 is denoted as C)
CCCN1C(=O)[C@@H]2CCN2C(=O)[C@H](C)N(C)C(=O)[C@H]([C@@H](C)CC)NC(=O)[C@H](CC(C)C)NC(=O)C[C@@H](C(=O)N2CCOCC2)N(C)C(=O)[C@H](C2CCCC2)N(C)C(=O)C2(CCCC2)NC(=O)[C@@H]2CCCN2C(=O)[C@H](CCc2ccc(C(F)(F)F)c(Cl)c2)NC(=O)CN(C)C(=O)[C@@H]1Cc1ccc(C(F)(F)F)cc1 [PP0154] (LI[NMeA][Aze][NPrPhe(4-CF3)][Sar][hPhe(3-Cl-4-CF3)]P[Ac5c][NMeGly(cPent)][NMeD]-Morpholide; lactam N-11)	C (A compound having a KD ratio of 0.1 or more and less than 3 is denoted as C)	B (a compound having 3 or more and less than 10 is denoted as B)
CCCN1C(=O)CN(C)C(=O)CNC(=O)[C@H]([C@@H](C)CC)NC(=O)[C@H](CC(C)C)N(C)C(=O)C[C@@H](C(=O)N2CCOCC2)N(C)C(=O)[C@H](C2CCCC2)N(C)C(=O)C2(CCCC2)NC(=O)[C@@H]2CCCN2C(=O)[C@H](CCc2ccc(C(F)(F)F)c(Cl)c2)NC(=O)CN(C)C(=O)[C@@H]1Cc1ccc(C(F)(F)F)cc1 [PP0155] ([NMeL]IG[Sar][NPrPhe(4-CF3)][Sar][hPhe(3-Cl-4-CF3)]P[Ac5c][NMeGly(cPent)][NMeD]-Morpholide; lactam N-11)	B (a compound having 3 or more and less than 10 is denoted as B)	C (A compound having a KD ratio of 0.1 or more and less than 3 is denoted as C)
